US11471502B2, “Neuroprotective peptide” (UNIVERSITY COLLEGE CARDIFF C[…], priority 2017, dated 2022)
Entries after “also recorded” stand apart in the source; their conditions may differ.

How the values were obtained:
WT mice = assay: Novel Object Recognition Test (NOR); format: in vivo, mouse; settings: for memory formation and consolidation in NOR: 24, 48, 72 and 120 h (up to 5 days)
Experimental: a) After a 5 min habituation session in the empty arena on day 1, mice were injected with RB5 (20 mg/kg) or vehicle one hour before the training session with two identical objects on day 2 and were then evaluated for their long-term memory on subsequent days. Discrimination Index (D.I.) was tested at different time points 24, 48, 72, and 120 hrs (a) and also up to 168 h (b). […] On subsequent days, while the RB5 group remained high, the Scramble group returned to basal levels. *p<0.01**p<0.0001. […] At 24 h, D.I. of RB5 group was highly significant (Independent sample t-test t26=4.428 P<0.01, SCR (n=14) RB5 (=14)) as well as at 48 h (Independent sample t-test t38=4.210 P<0.0001, SCR (n=18) RB5 (=22)). […] P<0.001, P<0.01.
The test was performed in an open square box (45×45×45 cm), placed in a quiet room with dim light. The objects used were: parallelepipeds in metal and glass vials filled with water. They had no natural significance for mice and they had never been associated with reinforcement before. The protocol required three days and it was performed as follows:
First day: the mice were individually placed in the empty arena for 5 min in order to familiarize with it and to measure their anxiety (thigmotaxis trial). The percentage of thigmotaxis is calculated as the time spent in the peripheral zone out of the total time spent in the arena (300 sec.). Animals showing a thigmotaxis>90% are discarded from the sample because considered biased for anxiety.
Second day: Mice were injected with either […] CPP-SCR or CPP-RB5 1 h prior to training and then they were placed into the arena for 10 minutes, where they were allowed to explore two identical objects (training trial). Therefore, two different measures (in seconds) for Left Object and Right Object were obtained. […] Then, percentages of exploration for each object were calculated as: the time spent exploring LO or RO, out of the total time of exploration (RO+LO). According to these percentages, experimenter decided where to place the novel object for the test trial.
Third day: one of the two identical objects (Parallelepiped) was changed with a new object (Vial) and the mice were allowed to explore them for 10 minutes (test trial).
Times of exploration for the familiar object (FO) and for the novel object (NO) were separately recorded, with the same procedure as for the training trial. A cut-off of 6 seconds was also considered. In order to attest recognition memory, a discrimination index (D.I.) was calculated as (total time of exploration of NO−total time of exploration of FO)/total time of exploration of (FO+NO). D.I. index is comprised between −1 and +1. A D.I. of 1 would mean perfect memory retention for the […]. Conversely, the more time the animal spends exploring FO the lower will be the D.I. value, meaning poor memory retention for FO. SMART software (Panlab, Barcelona, Spain) was used to run the experiment.

Lister Hooded rats = assay: Contextual Fear Conditioning after infusion into dorsal hippocampus; format: in vivo, rat
Experimental: (*p<0.05, **p<0.01, FLSD test).
The subjects were adult male Lister hooded rats weighing 280-350 g. They were housed in pairs, in holding rooms maintained at 21° C. on a reversed-light cycle (12 h light/dark; lights on at 10:00 P.M.). All experiments were conducted in the dark period of the rats. Food and water were freely available throughout the experiment. Steel double guide cannulae aimed at the dorsal hippocampus (AP−3.50, relative to bregma) were surgical implanted under anaesthesia at least one week prior to behavioural training and microinfusions. Bilateral infusions with either 2 mg/ml CPP-SCR or CPP-RB5, 20 min prior to conditioning (pH 7.0, […]) via the chronically indwelling cannula were carried out in awake rats using a syringe pump, connected to injectors (28 gauge, projecting 1 mm beyond the guide cannulae) by polyethylene tubing.
Conditioning was performed in one of two distinct contexts. These contexts were designed to differ in a number of distinctive characteristics including size, spatial location, odour and lighting.
Rat protocol: during the 3 min conditioning training trial, rats received a single scrambled footshock (0.5 mA for 2 s) 2 min after being placed into one of the conditioning contexts (CtxA). All rats were returned to the home cages after conditioning. Retrieval tests 3 hr (post-retrieval short-term memory, STM), or 2 days (long-term memory, LTM) after recall again consisted of exposing the rat to the conditioning context for 2 min.
For all protocols, freezing behavior served as a measure of conditioned fear to the context during the conditioning and retrieval tests of the behavioural procedures. This was video-recorded and quantified by an observer blind to the experimental group. One unit of freezing was defined as a continuous absence of movement other than that required for respiration in 1 s sampled every 10 s.

[1] = 2 mg/ml bilateral dorsal CA1 infusion 20 min prior to conditioning
[2] = 2 mg/ml infusion into dorsal hippocampus prior to CFC

Molecule | memory formation and consolidation in NOR (WT mice) | Discrimination Index (D.I.) (WT mice; 24 h, 20 mg/kg 1 h before training) | Discrimination Index (D.I.) (WT mice; 48 h, vs chance level) | Discrimination Index (D.I.) (WT mice; 72 h) | Discrimination Index (D.I.) (WT mice; 120 h) | Discrimination Index (D.I.) / performance (WT mice; 168 h) | STM and LTM (freezing at 3 hr and 2 days after training) (Lister Hooded rats; [1]) | post footshock (postUS) freezing behaviour during fear conditioning (Lister Hooded rats; [1]) | acquisition of contextual fear memory (Lister Hooded rats; [2]) | long-term fear memory (Lister Hooded rats; [2])
CSCC[C@H](NC(=O)[C@H](CCC(=O)O)NC(=O)[C@@H](NC(=O)[C@H](CCC(=O)O)NC(=O)CNC(=O)[C@@H]1CCCN1C(=O)[C@@H](NC(=O)CNC(=O)[C@@H]1CCCN1C(=O)CNC(=O)[C@@H](NC(=O)CNC(=O)[C@H](CCC(=O)O)NC(=O)[C@@H](NC(=O)[C@H](CCCNC(=N)N)NC(=O)[C@H](CCCNC(=N)N)NC(=O)[C@@H]1CCCN1C(=O)[C@H](CCC(=O)O)NC(=O)CNC(=O)CNC(=O)CNC(=O)CNC(=O)CNC(=O)[C@H](CCC(N)=O)NC(=O)[C@@H]1CCCN1C(=O)[C@@H]1CCCN1C(=O)[C@H](CCCNC(=N)N)NC(=O)[C@H](CCCNC(=N)N)NC(=O)[C@H](CCCNC(=N)N)NC(=O)[C@H](CCC(N)=O)NC(=O)[C@H](CCCNC(=N)N)NC(=O)[C@H](CCCNC(=N)N)NC(=O)[C@H](CCCCN)NC(=O)[C@H](CCCCN)NC(=O)[C@H](CCCNC(=N)N)NC(=O)CNC(C)=O)[C@@H](C)O)C(C)C)C(C)C)C(C)C)C(=O)N[C@H](C(=O)N[C@@H](CCCCN)C(=O)NCC(=O)N[C@@H](CCC(N)=O)C(=O)N1CCC[C@H]1C(=O)N[C@@H](Cc1ccccc1)C(=O)N[C@@H](CC(=O)O)C(=O)N[C@@H](C(=O)O)C(C)C)C(C)C [RB5] | significantly enhanced | significantly higher than the Scramble group | greatly above it | remained highly significant | still highly significant | dropped to basal levels indistinguishable from SCR group; also recorded: went down to basal levels indistinguishable from SCR group | increase in both STM and LTM | increase | – | –
GRKKRRQRRRPPQGGGGGEPRRTEGVGPGVPGEVEMVKGQPFDV (listed as Homo sapiens) [CPP-RB5] | greater performances in remembering the object | – | – | – | – | – | – | – | enhanced | stronger long-term fear memory
